Experimental findings from publication PMC9181982, “Biphenyl Ether Analogs Containing Pomalidomide as Small-Molecule Inhibitors of the Programmed Cell Death-1/Programmed Cell Death-Ligand 1 Interaction” (Molecules, 2022) are described below.

This test deals with T1, PD-L1 in MDA-MB-231 cells (Homo sapiens, UniProt Q9NZQ7).
T1 construct: host or cells: MDA-MB-231
In words: Western blot of PD-L1 expression in MDA-MB-231 cells. Format: cell-based. As to conditions: MDA-MB-231 cells treated for 6 or 24 h. Here is the method:
The cell lysates were prepared with a RIPA buffer (Sigma-Aldrich) containing Protease Inhibitor Cocktail (Sigma-Aldrich, St. Louis, MO, USA) and separated by 12% SDS-PAGE (TGX™ FastCast™ Acrylamide Kit, Bio-Rad, Hercules, CA, USA). The proteins were transferred to a PVDF membrane (Merck Millipore, Burlington, MA, USA) using a Mini Trans-Blot® Cell system (Bio-Rad, Hercules, CA, USA). The membranes were incubated with 4% (m/v) bovine serum albumin (BioShop, Burlington, Ontario, Canada) in a TBS buffer containing 0.1% (v/v) Nonidet P-40 (BioShop, Burlington, Ontario, Canada) at RT for 1 h. Then, the membranes were incubated with a specific primary antibody at 4 °C overnight. Following three washes in TBS-N, a secondary horseradish peroxidase (HRP)-conjugated antibody was applied for 1 h at RT. […]
Figure 2 Bioactivity of the indicated compounds. (A,B) The activity was monitored with a cell-based immune checkpoint blockade (ICB) assay. […] The cells were co-cultured for 6 h and the luminescence signal was measured following the addition of the Bio-Glo substrate. The graphs show fold induction calculated versus either DMSO-treated (for small molecules) or untreated (for durvalumab) control (ctrl) cells. […]
Background: In western blotting, separated proteins are transferred to a membrane and probed.

Each structure is given as a SMILES string. “Also recorded” adds a separate entry of the source.

T1 sequence (Q9NZQ7 19-290): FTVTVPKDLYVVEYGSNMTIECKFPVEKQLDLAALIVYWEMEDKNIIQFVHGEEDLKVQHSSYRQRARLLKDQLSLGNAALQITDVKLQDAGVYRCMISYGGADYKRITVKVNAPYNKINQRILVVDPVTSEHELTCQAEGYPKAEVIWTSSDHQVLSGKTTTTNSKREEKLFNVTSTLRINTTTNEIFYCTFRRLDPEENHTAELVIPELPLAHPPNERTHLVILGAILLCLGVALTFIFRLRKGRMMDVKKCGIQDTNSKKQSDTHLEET

On to `COc1nc(OCc2cccc(-c3ccccc3)c2C)ccc1CNCCCNc1cccc2c1C(=O)N(C1CCC(=O)NC1=O)C2=O` (centres unmarked) [compound 5, 2-(2,6-dioxopiperidin-3-yl)-4-((3-(((2-methoxy-6-((2-methyl-[1,1′-biphenyl]-3-yl)methoxy)pyridin-3-yl)methyl)amino)propyl)amino)isoindoline-1,3-dione], for which the “Downregulation of PD-L1 expression (Western blot)” value was “not related to the downregulation of PD-L1 expression; also recorded: unrelated to the downregulation of PD-L1 expression”. With `COc1nc(OCc2cccc(-c3ccccc3)c2C)ccc1CNCC1CCN(CC(=O)Nc2cccc3c2C(=O)N(C2CCC(=O)NC2=O)C3=O)CC1` (centres unmarked) [compound 4, N-(2-(2,6-dioxopiperidin-3-yl)-1,3-dioxoisoindolin-4-yl)-2-(4-((((2-methoxy-6-((2-methyl-[1,1′-biphenyl]-3-yl)methoxy)pyridin-3-yl)methyl)amino)methyl)piperidin-1-yl)acetamide], the “Downregulation of PD-L1 expression (Western blot)” value was “not related to the downregulation of PD-L1 expression; also recorded: unrelated to the downregulation of PD-L1 expression”.
